Laboratory results from BindingDB's records for doi:10.1111/cbdd.12539 (Jagiellonian University Medical College, 2015).

Tests used:
[1] = target: T1, 5-hydroxytryptamine receptor 1A (Homo sapiens, UniProt P08908); test: Radioligand Binding Assay; details: 25 °C
T1 sequence (P08908 whole entry): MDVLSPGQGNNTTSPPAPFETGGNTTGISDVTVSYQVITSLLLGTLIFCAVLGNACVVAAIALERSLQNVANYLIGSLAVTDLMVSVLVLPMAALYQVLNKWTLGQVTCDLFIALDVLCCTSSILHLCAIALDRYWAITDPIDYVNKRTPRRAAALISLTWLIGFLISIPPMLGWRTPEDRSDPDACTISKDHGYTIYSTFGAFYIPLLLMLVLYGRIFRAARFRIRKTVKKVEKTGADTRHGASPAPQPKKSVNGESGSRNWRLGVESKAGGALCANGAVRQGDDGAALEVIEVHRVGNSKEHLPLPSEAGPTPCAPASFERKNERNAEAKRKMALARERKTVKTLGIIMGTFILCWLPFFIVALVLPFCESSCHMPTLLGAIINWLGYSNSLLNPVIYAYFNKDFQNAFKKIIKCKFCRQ
Procedure: All assays were incubated in a total volume of […] in 96-well microtiter plates for 1 h at 37 °C, except for 5-HT1ARs which were incubated at room temperature for 1 h. The process of equilibration was terminated by rapidfiltration through Unifilter plates with a 96-well cell harvester and radioactivity retained on the filters was quantified on a Microbeta plate reader.

[2] = target: 5-hydroxytryptamine receptor 7 (Homo sapiens, UniProt P34969); test: Radioligand Binding Assay; details: 25 °C
5-hydroxytryptamine receptor 7, sequence (P34969 whole entry): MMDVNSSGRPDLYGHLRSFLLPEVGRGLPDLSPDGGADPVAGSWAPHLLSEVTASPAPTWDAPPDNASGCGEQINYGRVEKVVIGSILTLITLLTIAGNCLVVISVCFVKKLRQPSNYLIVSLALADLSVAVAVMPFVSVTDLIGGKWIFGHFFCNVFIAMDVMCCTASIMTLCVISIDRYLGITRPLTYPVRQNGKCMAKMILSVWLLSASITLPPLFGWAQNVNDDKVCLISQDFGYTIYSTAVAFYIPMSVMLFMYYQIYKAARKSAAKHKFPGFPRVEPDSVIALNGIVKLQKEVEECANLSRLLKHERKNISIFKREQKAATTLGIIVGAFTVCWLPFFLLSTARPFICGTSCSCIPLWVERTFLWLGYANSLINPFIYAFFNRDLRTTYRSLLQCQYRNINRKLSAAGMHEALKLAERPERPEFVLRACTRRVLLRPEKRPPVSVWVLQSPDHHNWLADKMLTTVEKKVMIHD

With `O=C1NN=C(c2ccccc2Cl)NC1CCCCN1CCN(c2ccccc2F)CC1` (stereo not given) [3-(2-Chlorophenyl)-5-{4-[4-(2-fluorophenyl)piperazin-1-yl]butyl}-4,5-dihydro-1,2,4-triazin-6(1H)-one (17)] the Ki [1] was 37 nM and the Ki [2] was 91 nM.

Work on `O=C1NN=C(C2CCCCC2)NC1CCCCN1CCN(c2cccc(Cl)c2Cl)CC1` (stereo not given) [3-Cyclohexyl-5-{4-[4-(2,3-dichlorophenyl)piperazin-1-yl]butyl}-4,5-dihydro-1,2,4-triazin-6(1H)-one (20)] yielded a Ki [1] of 32 nM and a Ki [2] of 5 nM.

`CSc1ccccc1N1CCN(CCCCC2NC(C3CCCCC3)=NNC2=O)CC1` (stereo not given) [3-Cyclohexyl-5-{4-[4-(2-(methylthio)phenyl)piperazin-1-yl]butyl}-4,5-dihydro-1,2,4-triazin-6(1H)-one (19)] was tested, and the Ki [1] was 14 nM and the Ki [2] was 6 nM.

`COc1ccccc1N1CCN(CCCCC2NC(C3CCCCC3)=NNC2=O)CC1` (stereo not given) [3-Cyclohexyl-5-{4-[4-(2-methoxyphenyl)piperazin-1-yl]butyl}-4,5-dihydro-1,2,4-triazin-6(1H)-one (18)] gave a Ki [1] of 5 nM and a Ki [2] of 20 nM.

`O=C1NN=C(c2ccccc2)NC1CCCCN1CCN(c2ccccc2)CC1` (stereo not given) [3-Phenyl-5-[4-(4-phenylpiperazin-1-yl)butyl]-4,5-dihydro-1,2,4-triazin-6(1H)-one (11)] gave a Ki [1] of 79 nM and a Ki [2] of 95 nM.

Work on `O=C1NN=C(c2ccccc2)NC1CCCCN1CCN(c2cccc(Cl)c2Cl)CC1` (stereo not given) [5-{4-[4-(2,3-Dichlorophenyl)piperazin-1-yl]butyl}-3-phenyl-4,5-dihydro-1,2,4-triazin-6(1H)-one (16)] yielded a Ki [1] of 70 nM and a Ki [2] of 16 nM.

`CSc1ccccc1N1CCN(CCCCC2NC(c3ccccc3)=NNC2=O)CC1` (stereo not given) [5-{4-[4-(2-(Methylthio)phenyl)piperazin-1-yl]butyl}-3-phenyl-4,5-dihydro-1,2,4-triazin-6(1H)-one (13)] gave a Ki [1] of 28 nM and a Ki [2] of 17 nM.

Molecule `O=C1NN=C(c2ccccc2)NC1CCCCN1CCN(c2ccccc2F)CC1` (stereo not given) [5-{4-[4-(2-Fluorophenyl)piperazin-1-yl]butyl}-3-phenyl-4,5-dihydro-1,2,4-triazin-6(1H)-one (14)] has a Ki [1] of 119 nM and a Ki [2] of 100 nM.

`COc1ccccc1N1CCN(CCCCC2NC(c3ccccc3)=NNC2=O)CC1` (stereo not given) [5-{4-[4-(2-Methoxyphenyl)piperazin-1-yl]butyl}-3-phenyl-4,5-dihydro-1,2,4-triazin-6(1H)-one (12)] was tested, and the Ki [1] was 9 nM and the Ki [2] was 27 nM.

Molecule `O=C1NN=C(c2ccccc2)NC1CCCCN1CCN(c2ccc(Cl)cc2)CC1` (stereo not given) [5-{4-[4-(4-Chlorophenyl)piperazin-1-yl]butyl}-3-phenyl-4,5-dihydro-1,2,4-triazin-6(1H)-one (15)] has a Ki [1] of 698 nM and a Ki [2] of 79 nM.
